Test results: paper PMC10816640, “Discovery of Novel Diphenyl Acrylonitrile Derivatives That Promote Adult Rats’ Hippocampal Neurogenesis” (International Journal of Molecular Sciences, 2024)
“Also recorded” adds a separate entry of the source.

Columns and labels:
hCMEC/D3 cells = experiment: CCK-8 assay for cytotoxicity; assay type: cell-based; details: hCMEC/D3 cell lines, CCK-8, 48 h incubation
Method: hCMEC/D3 cells were obtained from the Cell Resource Center, Peking Union Medical College (PCRC). All cells were acquired in 2023 and were maintained in culture for no more than 10 continuous passages. The cells were cultured in DMEM (11995065, Gibco, Grand Island, NY, USA) supplemented with 10% FBS (164210-50, Procell, Austin, TX, USA), 100 units of penicillin, and […] of streptomycin (PB180120, Procell).
hCMEC/D3 cells (5 × 10^3) were seeded into 96-well plates in 90 μL of DMEM medium containing 10% fetal bovine serum per well. All test compounds were formulated as 10 mM stock solutions in DMSO (final concentration ≤ 0.5%). After overnight incubation, the test compound stock solution was diluted with DMEM medium containing 10% fetal bovine serum to every target concentration, and 10 μL of each was added to each well. Three parallel experiments were set up for each compound. After incubation for 48 h, 10 μL of CCK-8 reagent was added to each well in sequence according to the manufacturer’s instructions. After incubating in a 37 °C incubator for 1–2 h, the absorbance was measured at a wavelength of 450 nm, using a wavelength of 620 nm as a reference, and detected with a ThermoScientific Multiskan FC (Thermo Fisher Scientific). The graphs are representative results, and this experiment was independently repeated three times with similar results.

[1] = system: newborn neural progenitor cells (differentiation into mature neurons); experiment: Differentiation stage of neurogenesis: NeuN/BrdU double staining, rats sacrificed 28 days after BrdU; assay type: in vivo, rat; details: for neurogenesis-promoting activity (number of NeuN+ and BrdU+ cells), differentiation stage: nine-week-old rats (n = 4), i.p. 4.0 mg/kg, Figure 9, 4 mg/kg
Text: (§1) Previous in vitro or in vivo studies mainly focused on stimulating the proliferation effect of the small molecules. In this study, a two-step protocol was employed. First, the stimulating function of the compounds on progenitor cells in the rodents’ hippocampi was examined with using bromodeoxyuridine (BrdU) labeling. Next, the potent compounds were further screened to ascertain their ability to promote the differentiation of neural progenitor cells, as confirmed by dual labeling of BrdU and NeuN (neuronal nuclear antigen).
The study employed a rat model, wherein nine-week-old rats were administered intraperitoneally with the compound at a dose of 4.0 mg/kg/day for 28 days and then treated with a pulse of BrdU. Instead of sacrificing the rats 24 h after the BrdU injections, the rats were sacrificed after another 28 days. The brains were then isolated and cryosectioned. Eight randomly selected slices were subjected to immunohistochemical staining. This staining enabled the co-localization of the BrdU-incorporated cells with the NeuN marker, enabling the definition of the compounds that could promote the differentiation of newborn neural progenitor cells into mature functional neurons.
(§2) The compounds were dissolved in reagent-grade soybean oil containing 10% ethanol to reach a drug concentration of 2.8 mg/mL. The rats in the experimental group received intraperitoneal injections of the compounds at a dose of 4.0 mg/kg/d for 28 consecutive days. As a control, the vehicle group was administered injections of reagent-grade soybean oil containing 10% ethanol. BrdU (Sigma-Aldrich, St. louis, MA, USA) solution, prepared in physiological saline at a concentration of 10 mg/mL, was administered to all rats on day 29. Each rat received two injections of BrdU at a dosage of 50 mg/kg, with a 2 h interval between injections. The rats were euthanized 24 h (or 28 days) after the final BrdU injection.
(§3) Two or four rats per group were anesthetized using pentobarbital sodium (70 mg/kg) and subsequently perfused with physiological saline. The brain tissue was carefully dissected and fixed in 4% paraformaldehyde at 4 °C for one week. Next, the brain tissue underwent dehydration using a phosphate-buffered saline (PBS) solution containing 20% to 30% sucrose. Finally, the brain tissue was cryosectioned into slices with a thickness of 30 μm, and eight slices were randomly selected for further analysis.
The differentiation process of NPCs was visualized through the utilization of the NeuN/BrdU double staining technique. Tissue sections were subjected to an incubation period in a blocking buffer at RT for 1 to 2 h. The specimens were exposed to a rabbit anti-NeuN antibody (diluted at 1:500, Abcam, Cambridge, MA, UK) and a primary antibody, BrdU (diluted at 1:500), overnight at 4 °C. Afterwards, the sections were treated with anti-mouse 488 and anti-rabbit TRITC secondary antibodies for 2 h at RT.
(§4) The data were presented as mean ± SEM (standard error of the mean) and visualized using GRAPHPAD PRISM 6 (Graphpad Software, La Jolla, CA, USA). Statistical analysis was conducted utilizing one-way analysis of variance (ANOVA) followed by a post hoc test. Subsequent to the statistical treatment, the observed discrepancies were determined to be statistically significant (p < 0.05).

[2] = system: progenitor cells in the rodents’ hippocampi; experiment: Proliferation stage of neurogenesis: BrdU labeling, rats sacrificed 24 h after BrdU; assay type: in vivo, rat; details: i.p. 4.0 mg/kg/day for 28 days, BrdU pulse, vs vehicle; for proliferation-promoting activity (number of BrdU+ positive cells): nine-week-old rats (n = 4), Figure 8, 4 mg/kg/day
Text: as §1
Adult rats were administered intraperitoneally with the prepared compounds at a dose of 4.0 mg/kg/day for a period of 28 days, followed by a BrdU pulse. After 24 h, the rats were sacrificed, and their brain tissues were isolated and cryosectioned. Immunohistochemical staining was performed and eight brain tissue slices were randomly selected for statistical analyzing.
Eight-week-old (or 10-week-old) SD male rats purchased from Peking University Health Science Center were acclimatized for one week at the Beijing Institute of Technology. All experimental protocols strictly adhered to the regulations governing the management of experimental animals and the animal ethics policy of the Beijing Institute of Technology.
as §2, §3
The assessment of new cell proliferation was conducted using BrdU staining. To eliminate endogenous peroxides, sections were exposed to 1% H2O2 for 30 min at RT. Cellular denaturation was achieved by treating the sections with 2 M HCl at 37 °C for 1 h, followed by rinsing in 0.1 M borate buffer (pH 8.5). Tissue sections were subjected to blocking in a solution consisting of 5% goat serum and 0.5% Triton X-100 in PBS at RT for 1–2 h. The specimens were then incubated overnight at 4 °C with a mouse primary antibody specific to BrdU (diluted at 1:500; Millipore, Billerica, MA, USA). Subsequently, the DAB kit was employed for 2 h of incubation at RT.
as §4

Row | Compound | IC50 (hCMEC/D3 cells) | neurogenesis-promoting activity (number of NeuN+ and BrdU+ cells), differentiation stage [1] | proliferation-promoting activity (number of BrdU+ positive cells) [2] | neurogenesis-promoting activity (number of NeuN+ and BrdU+ cells, newborn neurons) ([1]; nine-week-old rats (n = 2), i.p. 4.0 mg/kg/day for 28 days, BrdU pulse, Figure 7B, 4 mg/kg/day) | proliferation-promoting activity (number of BrdU+ newborn cells) ([2]; eleven-week-old rats (n = 2), Figures 3-6, 4 mg/kg/day)
1 | CC(C)C(=O)Nc1ccc(/C=C(\C#N)c2ccc3c(c2)OCO3)cc1 [32b, (Z)-N-(4-(2-(benzo[d][1, 3]dioxol-5-yl)-2-cyanovinyl)phenyl)isobutyramide] | > 200 µM | significant neurogenesis-promoting activity; also recorded: better activity than the clinical drug NSI-189; also recorded: highest activity | significant proliferation-promoting activity; also recorded: exhibited proliferative activity |  | 
2 | CC(C)C(=O)Nc1ccc(/C(C#N)=C/c2ccc3c(c2)OCO3)cc1 [29b, (Z)-N-(4-(2-(benzo[d][1, 3]dioxol-5-yl)-1-cyanovinyl)phenyl)isobutyramide] | > 200 µM | significant neurogenesis-promoting activity; also recorded: better activity than the clinical drug NSI-189 | significant proliferation-promoting activity; also recorded: exhibited proliferative activity | significant neurogenesis-promoting activity; also recorded: significantly increased the number of newborn neurons | significant proliferation-promoting activity; also recorded: satisfactory activity
